Measurements: patent US20060293395A1, “Methods for treating a mammal before, during and after cardiac arrest” (priority 2004, published 2006)

Assays:
male domestic pigs [1] = assay: Example 3: dobutamine vs levosimendan in the porcine model of cardiac arrest and cardiac resuscitation; format: in vivo, pig
Procedure: Experimental Preparation: The experiments were performed in the porcine model of cardiac arrest and cardiac resuscitation which has been extensively exercised. (21,22). […] Anesthesia was initiated by intramuscular injection of ketamine (20 mg kg^−1) and was completed by ear vein injection of sodium pentobarbital (30 mg kg^−1). Additional 8 mg kg^−1 doses of sodium pentobarbital were injected to maintain anesthesia at intervals of one hour. A cuffed endotracheal tube was advanced into the trachea. Animals were mechanically ventilated with a volume of 15 mL kg^−1, peak airway flow of 40 L min^−1, and FiO2 of 0.2 with the aid of a volume-controlled ventilator (Model MA-1, Puritan-Bennett, Carlsbad, Calif.). End-tidal PCO2 (PETCO2) was monitored with an infrared analyzer (Model 01R-7101A, Nihon Kohden Corp, Tokyo, Japan). Respiratory frequency was adjusted to maintain PETCO2 between 35 and 40 mmHg. Blood temperature was maintained at 37±0.5° C. with the aid of infrared heating lamps, as required.
For the measurement of left ventricular functions, a 5.5/7.5 MHz biplane with pulse-wave Doppler transesophageal echocardiographic tranducer with 4-way flexure (Model 21363A, Hewlett-Packard Co. Medical Products Group, Andover, Mass.) was advanced from the incisor teeth into the esophagus for a distance of approximately 40 cm. For the measurement of aortic pressure, a fluid filled catheter was advanced from the surgically exposed left femoral artery into the thoracic aorta. For measurements of right atrial and pulmonary arterial pressures, blood temperature and cardiac output, a 7-French, pentalumen, thermodilution-tipped catheter was advanced from the surgically exposed left femoral vein and flow-directed into the pulmonary artery. For inducing VF, a 5-French pacing catheter (EP Techologies, Inc., Mountain View, Calif.) was advanced from the surgically exposed right cephalic vein into the right ventricle. […] This catheter was then looped laterally and advanced inferiorly for a distance of 5 cm into the great cardiac vein for sampling of coronary venous blood. The electrocardiographic (EKG) lead II was continuously recorded.
Experimental procedure: A total 15 animals were investigated. […] Cardiac arrest was induced with 1 to 2 mA AC delivered to the endocardium of the right ventricle. Mechanical ventilation was discontinued after onset of VF. At the end of a 7-minute interval of untreated VF, precordial compression (PC) was started with a pneumatic piston-driven chest compressor (Thumper, Model 1000, Michigan Instruments, Grand Rapids, Mich.). Coincident with the start of PC, the animal was mechanically ventilated with a tidal volume of […] and FiO2 of 1.0. […] The compression force was adjusted to decrease the anterior-posterior diameter of the chest by 25%. After 5 minutes of PC, defibrillation was attempted with a 150 J biphasic waveform shock delivered between the right infraclavicular area and the cardiac apex. If an organized cardiac rhythm with mean aortic pressure of more than 60 mm Hg persisted for an interval of 5 minutes or more, the animal was regarded as successfully resuscitated. At 10 minutes after restoration of spontaneous circulation (ROSC), one of the three interventions was begun. […] Levosimendan diluted in physiological salt solution was administered in a loading dose of 20 μg kg^−1, infused over 10 minutes, followed by infusion of 0.4 μg kg^−1 min^−1 also in physiologic salt solution for a total duration of 230 minutes.

male domestic pigs [2] = assay: Levosimendan on post-resuscitation myocardial function after beta-adrenergic blockade (propranolol); format: in vivo, pig; conditions: levosimendan added early postresuscitation after propranolol, in comparison with propranolol alone
Procedure: Anesthesia was initiated by intramuscular injection of ketamine (20 mg/kg) and completed by ear vein injection of sodium pentobarbital (30 mg/kg). Additional doses of sodium pentobarbital (8 mg/kg) were injected to maintain anesthesia at intervals of one hour. A cuffed endotracheal tube was advanced into the trachea. Animals were mechanically ventilated with a volume-controlled ventilator (Model MA-1, Puritan-Bennett, Carlsbad, Calif.) with a tidal volume of 15 mL/kg, peak flow of 40 L/min, and FiO2 of 0.21. End-tidal PCO2 (ETCO2) was monitored with an infrared analyzer (Model 01R-7101A, Nihon Kohden Corp, Tokyo, Japan). Respiratory frequency was adjusted to maintain PETCO2 between 35 and 40 mm Hg.
For the measurement of left ventricular functions, a 5.5/7.5 […] biplane with Doppler transesophageal echocardiographic transducer with 4-way flexure (Model 21363A, Hewlett-Packard Co., Medical Products Group, Andover, Mass.) was advanced from the incisor teeth into the esophagus for a distance of approximately 35 cm. For the measurement of aortic pressure, a fluid-filled catheter was advanced from the left femoral artery into the thoracic aorta. For the measurements of right atrial, pulmonary arterial pressures and blood temperature, a 7-French, pentalumen, thermodilution-tipped catheter was advanced from the left femoral vein and flow-directed into the pulmonary artery. A 7-French catheter was advanced from the left cephalic vein into the great cardiac vein for the measurement of great cardiac vein blood gases and lactate. For inducing VF, a 5-French pacing catheter (EP Technologies, Inc., Mountain View, Calif.) was advanced from the right cephalic vein into the right ventricle.
The investigators were blinded to the randomization. Cardiac arrest was induced with 1 to 2 mA AC delivered to the endocardium of the right ventricle. Mechanical ventilation was discontinued after onset of VF. At the end of the 7-min interval of untreated VF, precordial compression was started with a pneumatic piston-driven chest compressor (Thumper, Model 1000, Michigan Instruments, Grand Rapids, Mich.). […] The compression force was adjusted to decrease the anterior-posterior diameter of the chest by 25%. After 5 min of precordial compression, defibrillation was attempted with a 150 J biphasic waveform shock delivered between the right infraclavicular area and the cardiac apex. If an organized cardiac rhythm with mean aortic pressure of more than 60 mm Hg persisted for an interval of 5 min or more, the animal was regarded as successfully resuscitated. All animals had restoration of spontaneous circulation (ROSC) after electrical defibrillation, and were then randomized to three treatment groups: (1) propranolol (0.1 mg/kg bolus at 6 min of VF); (2) propranolol plus levosimendan (at 10 min after post resuscitation, 20 μg/kg over 10 min followed by 0.4 μg/kg/min for 220 min); and (3) equal volumes of saline as placebo.
Measurements were obtained over an interval of 4 hours following resuscitation. After 4 hours, animals were euthanized by intravenous injection of 150 mg kg^−1 pentobarbital. Autopsy was performed to document injuries to the bony thorax and the thoracic and abdominal viscera.

[3] = 4-hour interval after treatment

**Q.** Which “mean pulmonary artery pressure” value (male domestic pigs [1]; [3]) does the source give for `C[C@@H]1CC(=O)NN=C1c1ccc(NN=C(C#N)C#N)cc1` [Levosimendan] here?
**A.** Significantly lower

**Q.** And the “right atrial (filling) pressure” value (male domestic pigs [1]; [3])?
**A.** Significantly lower

**Q.** What about the heart rate (male domestic pigs [1]; among the three groups) of the same compound?
**A.** did not differ

**Q.** What about the neurological alertness scores (male domestic pigs [1]; at 24 hours) of the same compound?
**A.** significantly better

**Q.** And the arterial pressure (male domestic pigs [1]; between levosimendan and dobutamine)?
**A.** no differences in arterial pressure

**Q.** And the “coronary arterial-venous oxygen differences” value (male domestic pigs [1]; in comparison to dobutamine (FIG. 19))?
**A.** numerically smaller

**Q.** And the EF (male domestic pigs [1]; in comparison to dobutamine, persisted at 72 hours (FIG. 17))?
**A.** significantly greater

**Q.** And the FAC (male domestic pigs [1]; in comparison to dobutamine, persisted at 72 hours (FIG. 18))?
**A.** significantly greater

**Q.** What about the cardiac output (male domestic pigs [1]; vs saline placebo (FIG. 16)) of the same compound?
**A.** Significantly greater cardiac output

**Q.** What about the EF (male domestic pigs [2]) of the same compound?
**A.** additional and significant increases

**Q.** And the FAC (male domestic pigs [2])?
**A.** additional and significant increases
